Reference: the kinase profiling compilation of Christmann-Franck et al. (2016)

What was measured:
Assay in all cases: KINOMEscan competition binding
Details in all cases: compound 10.0 µM
BMP2K (human) = BMP2K (human) (UniProt Q9NSY1)
CDK14 (human) = CDK14 (human) (UniProt O94921)
CDK3 (human) = CDK3 (human) (UniProt Q00526)
CDK9 (human) = CDK9 (human) (UniProt P50750)
CSF1R (human) = CSF1R (human) (UniProt P07333)
CSNK1G2 (human) = CSNK1G2 (human) (UniProt P78368)
DCLK3 (human) = DCLK3 (human) (UniProt Q9C098)
EIF2AK2 (human) = EIF2AK2 (human) (UniProt P19525)
EPHA2 (human) = EPHA2 (human) (UniProt P29317)
EPHA4 (human) = EPHA4 (human) (UniProt P54764)
FGFR3 (human) = FGFR3 (human) (UniProt P22607)
[1] = test system: FLT3 (human), P36888 [R834Q]
HIPK1 (human) = HIPK1 (human) (UniProt Q86Z02)
ICK (human) = ICK (human) (UniProt Q9UPZ9)
IGF1R (human) = IGF1R (human) (UniProt P08069)
ITK (human) = ITK (human) (UniProt Q08881)
MAP3K13 (human) = MAP3K13 (human) (UniProt O43283)
MAP3K9 (human) = MAP3K9 (human) (UniProt P80192)
MARK1 (human) = MARK1 (human) (UniProt Q9P0L2)
MATK (human) = MATK (human) (UniProt P42679)
NEK11 (human) = NEK11 (human) (UniProt Q8NG66)
NUAK1 (human) = NUAK1 (human) (UniProt O60285)
NUAK2 (human) = NUAK2 (human) (UniProt Q9H093)
PAK7 (human) = PAK7 (human) (UniProt Q9P286)
PDGFRA (human) = PDGFRA (human) (UniProt P16234)
PRKG2 (human) = PRKG2 (human) (UniProt Q13237)
RPS6KA1 KD2 (human) = RPS6KA1 KD2 (human) (UniProt Q15418)
RPS6KA5 KD1 (human) = RPS6KA5 KD1 (human) (UniProt O75582)
RPS6KA5 KD2 (human) = RPS6KA5 KD2 (human) (UniProt O75582)
RPS6KB1 (human) = RPS6KB1 (human) (UniProt P23443)
SIK3 (human) = SIK3 (human) (UniProt Q9Y2K2)
SRC (human) = SRC (human) (UniProt P12931)
STK10 (human) = STK10 (human) (UniProt O94804)
STK17A (human) = STK17A (human) (UniProt Q9UEE5)
STK17B (human) = STK17B (human) (UniProt O94768)
STK38L (human) = STK38L (human) (UniProt Q9Y2H1)
TGFBR1 (human) = TGFBR1 (human) (UniProt P36897)
TLK1 (human) = TLK1 (human) (UniProt Q9UKI8)
TLK2 (human) = TLK2 (human) (UniProt Q86UE8)
TNNI3K (human) = TNNI3K (human) (UniProt Q59H18)
WEE2 (human) = WEE2 (human) (UniProt P0C1S8)

ITK (human), sequence (Q08881 whole entry, looked up): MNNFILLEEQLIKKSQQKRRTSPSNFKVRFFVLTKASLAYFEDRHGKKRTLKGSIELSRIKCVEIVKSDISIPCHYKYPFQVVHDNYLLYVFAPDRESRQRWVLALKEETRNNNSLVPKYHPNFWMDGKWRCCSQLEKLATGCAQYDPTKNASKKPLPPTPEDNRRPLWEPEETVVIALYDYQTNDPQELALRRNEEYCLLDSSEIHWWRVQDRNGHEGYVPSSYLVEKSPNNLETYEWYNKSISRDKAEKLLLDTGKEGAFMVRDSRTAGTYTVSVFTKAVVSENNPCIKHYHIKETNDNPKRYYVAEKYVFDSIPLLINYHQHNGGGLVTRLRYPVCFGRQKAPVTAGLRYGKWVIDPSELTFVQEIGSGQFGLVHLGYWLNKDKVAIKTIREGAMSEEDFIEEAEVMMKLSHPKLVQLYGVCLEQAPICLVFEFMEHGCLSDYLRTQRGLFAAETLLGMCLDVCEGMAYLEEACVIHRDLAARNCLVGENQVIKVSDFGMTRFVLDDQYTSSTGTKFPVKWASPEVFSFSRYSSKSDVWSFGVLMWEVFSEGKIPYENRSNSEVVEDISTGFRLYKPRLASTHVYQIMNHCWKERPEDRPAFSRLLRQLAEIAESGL
TLK2 (human), sequence (Q86UE8 whole entry, looked up): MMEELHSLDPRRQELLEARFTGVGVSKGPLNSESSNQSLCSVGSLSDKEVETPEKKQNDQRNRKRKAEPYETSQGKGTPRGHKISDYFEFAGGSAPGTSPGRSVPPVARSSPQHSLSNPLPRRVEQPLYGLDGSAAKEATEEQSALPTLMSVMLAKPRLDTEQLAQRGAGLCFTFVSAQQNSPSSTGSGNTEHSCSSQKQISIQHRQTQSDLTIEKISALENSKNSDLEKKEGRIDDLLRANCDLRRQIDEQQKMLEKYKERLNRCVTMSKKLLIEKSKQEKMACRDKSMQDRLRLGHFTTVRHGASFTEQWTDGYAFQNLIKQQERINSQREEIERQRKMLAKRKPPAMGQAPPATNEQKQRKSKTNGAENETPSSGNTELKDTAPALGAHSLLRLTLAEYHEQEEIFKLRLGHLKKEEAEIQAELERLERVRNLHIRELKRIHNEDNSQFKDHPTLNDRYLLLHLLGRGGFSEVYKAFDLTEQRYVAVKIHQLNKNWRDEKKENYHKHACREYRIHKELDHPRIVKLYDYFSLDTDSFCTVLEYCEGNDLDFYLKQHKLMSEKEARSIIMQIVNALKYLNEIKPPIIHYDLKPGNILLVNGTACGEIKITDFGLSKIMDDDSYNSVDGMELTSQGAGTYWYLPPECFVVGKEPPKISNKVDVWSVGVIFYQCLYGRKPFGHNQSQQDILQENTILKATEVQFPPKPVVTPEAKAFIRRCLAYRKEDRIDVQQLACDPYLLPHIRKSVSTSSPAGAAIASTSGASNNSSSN
TLK1 (human), sequence (Q9UKI8 whole entry, looked up): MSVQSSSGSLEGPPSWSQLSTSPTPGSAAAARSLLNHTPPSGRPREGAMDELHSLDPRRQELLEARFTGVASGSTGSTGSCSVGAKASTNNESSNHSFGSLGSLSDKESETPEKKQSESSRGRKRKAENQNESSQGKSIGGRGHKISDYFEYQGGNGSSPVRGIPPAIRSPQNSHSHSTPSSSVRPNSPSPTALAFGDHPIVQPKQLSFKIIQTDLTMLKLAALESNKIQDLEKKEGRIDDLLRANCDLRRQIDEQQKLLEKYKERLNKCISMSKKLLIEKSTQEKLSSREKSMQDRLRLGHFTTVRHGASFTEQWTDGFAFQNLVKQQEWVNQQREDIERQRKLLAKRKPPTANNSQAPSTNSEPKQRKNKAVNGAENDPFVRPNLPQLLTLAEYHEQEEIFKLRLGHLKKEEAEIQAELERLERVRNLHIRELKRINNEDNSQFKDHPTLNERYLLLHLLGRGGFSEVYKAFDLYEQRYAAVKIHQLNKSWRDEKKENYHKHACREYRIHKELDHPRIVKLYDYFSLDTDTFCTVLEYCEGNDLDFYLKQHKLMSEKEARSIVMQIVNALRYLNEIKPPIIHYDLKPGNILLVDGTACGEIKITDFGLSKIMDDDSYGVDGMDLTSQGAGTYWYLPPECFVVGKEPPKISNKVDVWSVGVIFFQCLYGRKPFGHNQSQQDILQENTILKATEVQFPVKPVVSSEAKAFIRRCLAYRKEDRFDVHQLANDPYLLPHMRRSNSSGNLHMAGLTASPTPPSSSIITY
STK17A (human), sequence (Q9UEE5 whole entry, looked up): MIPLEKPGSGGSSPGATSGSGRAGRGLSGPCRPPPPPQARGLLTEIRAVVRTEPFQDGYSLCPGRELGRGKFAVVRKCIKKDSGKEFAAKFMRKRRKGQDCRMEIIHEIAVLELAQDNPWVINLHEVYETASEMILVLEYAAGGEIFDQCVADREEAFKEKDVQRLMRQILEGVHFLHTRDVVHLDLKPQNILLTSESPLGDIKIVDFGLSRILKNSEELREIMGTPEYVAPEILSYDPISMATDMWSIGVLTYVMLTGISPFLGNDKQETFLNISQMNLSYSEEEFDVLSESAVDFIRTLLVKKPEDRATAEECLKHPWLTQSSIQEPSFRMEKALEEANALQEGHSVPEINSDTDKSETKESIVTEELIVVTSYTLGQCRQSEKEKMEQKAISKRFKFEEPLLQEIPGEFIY
BMP2K (human), sequence (Q9NSY1 whole entry, looked up): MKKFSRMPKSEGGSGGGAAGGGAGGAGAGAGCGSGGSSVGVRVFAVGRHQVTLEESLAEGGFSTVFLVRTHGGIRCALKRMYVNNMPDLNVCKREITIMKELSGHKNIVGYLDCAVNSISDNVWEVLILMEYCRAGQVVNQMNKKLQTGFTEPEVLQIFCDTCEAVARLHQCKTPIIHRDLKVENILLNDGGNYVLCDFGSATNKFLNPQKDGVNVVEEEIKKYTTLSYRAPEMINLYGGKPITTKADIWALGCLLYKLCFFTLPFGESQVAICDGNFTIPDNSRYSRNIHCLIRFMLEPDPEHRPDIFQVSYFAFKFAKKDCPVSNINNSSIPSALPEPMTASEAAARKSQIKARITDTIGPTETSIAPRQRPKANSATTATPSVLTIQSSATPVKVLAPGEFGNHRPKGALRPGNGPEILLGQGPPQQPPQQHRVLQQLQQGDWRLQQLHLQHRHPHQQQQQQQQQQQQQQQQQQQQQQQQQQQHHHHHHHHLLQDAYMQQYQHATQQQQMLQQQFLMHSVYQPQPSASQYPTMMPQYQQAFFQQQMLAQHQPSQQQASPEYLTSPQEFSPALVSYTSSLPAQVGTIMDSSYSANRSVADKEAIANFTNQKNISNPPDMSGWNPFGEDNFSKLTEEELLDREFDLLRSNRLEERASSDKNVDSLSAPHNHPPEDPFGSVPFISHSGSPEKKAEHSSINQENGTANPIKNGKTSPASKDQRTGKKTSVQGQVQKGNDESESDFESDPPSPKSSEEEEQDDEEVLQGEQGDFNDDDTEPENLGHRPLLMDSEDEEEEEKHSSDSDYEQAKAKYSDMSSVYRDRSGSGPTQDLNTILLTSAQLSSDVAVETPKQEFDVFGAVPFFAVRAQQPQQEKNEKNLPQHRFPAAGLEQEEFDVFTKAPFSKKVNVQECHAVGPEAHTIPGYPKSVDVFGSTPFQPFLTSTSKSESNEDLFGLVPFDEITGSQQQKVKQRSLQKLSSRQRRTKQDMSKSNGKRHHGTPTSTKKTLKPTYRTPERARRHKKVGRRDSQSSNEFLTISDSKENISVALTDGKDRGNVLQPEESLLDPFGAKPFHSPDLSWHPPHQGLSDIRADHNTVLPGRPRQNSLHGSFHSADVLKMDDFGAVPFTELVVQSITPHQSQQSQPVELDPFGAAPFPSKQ
STK10 (human), sequence (O94804 whole entry, looked up): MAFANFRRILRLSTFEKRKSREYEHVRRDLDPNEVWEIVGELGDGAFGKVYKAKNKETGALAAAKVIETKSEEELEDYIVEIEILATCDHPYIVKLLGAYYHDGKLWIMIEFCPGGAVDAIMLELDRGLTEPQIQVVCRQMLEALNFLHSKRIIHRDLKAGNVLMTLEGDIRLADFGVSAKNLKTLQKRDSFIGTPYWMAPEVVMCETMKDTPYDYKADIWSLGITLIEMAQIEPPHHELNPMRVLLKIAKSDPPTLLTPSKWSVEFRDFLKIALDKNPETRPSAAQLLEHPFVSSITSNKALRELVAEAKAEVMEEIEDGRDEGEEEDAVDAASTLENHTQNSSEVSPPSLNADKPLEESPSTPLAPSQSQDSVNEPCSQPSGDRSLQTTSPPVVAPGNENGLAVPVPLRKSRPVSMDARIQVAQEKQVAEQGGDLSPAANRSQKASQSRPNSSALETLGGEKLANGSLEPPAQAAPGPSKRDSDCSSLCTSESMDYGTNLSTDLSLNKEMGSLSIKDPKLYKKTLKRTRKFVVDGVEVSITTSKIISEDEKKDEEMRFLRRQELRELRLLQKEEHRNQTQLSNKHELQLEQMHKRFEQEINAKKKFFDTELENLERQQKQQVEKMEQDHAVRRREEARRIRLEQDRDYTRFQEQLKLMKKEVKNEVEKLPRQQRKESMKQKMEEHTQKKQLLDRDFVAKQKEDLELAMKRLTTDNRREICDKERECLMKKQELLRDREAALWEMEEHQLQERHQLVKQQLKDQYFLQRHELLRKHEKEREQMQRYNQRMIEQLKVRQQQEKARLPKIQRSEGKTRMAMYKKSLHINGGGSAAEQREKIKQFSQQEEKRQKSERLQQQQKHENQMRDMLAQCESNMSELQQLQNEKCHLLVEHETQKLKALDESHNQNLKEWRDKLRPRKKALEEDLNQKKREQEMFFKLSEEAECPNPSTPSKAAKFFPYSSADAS
CDK9 (human), sequence (P50750 whole entry, looked up): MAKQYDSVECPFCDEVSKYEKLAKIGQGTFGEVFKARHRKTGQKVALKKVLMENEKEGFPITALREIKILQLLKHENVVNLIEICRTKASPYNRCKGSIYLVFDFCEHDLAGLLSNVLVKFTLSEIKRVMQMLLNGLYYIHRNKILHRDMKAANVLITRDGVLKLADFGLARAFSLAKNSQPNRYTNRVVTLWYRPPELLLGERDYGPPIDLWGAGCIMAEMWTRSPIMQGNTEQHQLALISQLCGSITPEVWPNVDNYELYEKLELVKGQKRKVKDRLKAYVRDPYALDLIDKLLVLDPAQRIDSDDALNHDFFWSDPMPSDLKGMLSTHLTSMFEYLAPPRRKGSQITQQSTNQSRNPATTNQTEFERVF

Molecule `COC(=O)Nc1ccc(-c2nc(N3CCOCC3)c3cnn(C4CCN(C(=O)OC)CC4)c3n2)cc1` has a kinase still bound, per cent of control (BMP2K (human)) of 99%, a per cent of control (CDK14 (human)) of 100% and a per cent of control (CDK3 (human)) of 100%. It also gave a per cent of control (CDK9 (human)) of 100%, a kinase still bound, per cent of control (CSF1R (human)) of 90% and a kinase still bound, per cent of control (CSNK1G2 (human)) of 98%. It also gave a kinase still bound, per cent of control (DCLK3 (human)) of 92%, a kinase still bound, per cent of control (EIF2AK2 (human)) of 100% and a kinase still bound, per cent of control (EPHA2 (human)) of 100%. The kinase still bound, per cent of control (EPHA4 (human)) was 88%, the kinase still bound, per cent of control (FGFR3 (human)) was 99% and the kinase still bound, per cent of control [1] was 76%. It also gave a kinase still bound, per cent of control (HIPK1 (human)) of 57%, a kinase still bound, per cent of control (ICK (human)) of 85% and a per cent of control (IGF1R (human)) of 98%. For the same molecule, the kinase still bound, per cent of control (ITK (human)) was 91%, the kinase still bound, per cent of control (MAP3K13 (human)) was 100% and the kinase still bound, per cent of control (MAP3K9 (human)) was 100%. For the same molecule, the kinase still bound, per cent of control (MARK1 (human)) was 100%, the kinase still bound, per cent of control (MATK (human)) was 100% and the kinase still bound, per cent of control (NEK11 (human)) was 85%. For the same molecule, the kinase still bound, per cent of control (NUAK1 (human)) was 72%, the kinase still bound, per cent of control (NUAK2 (human)) was 84% and the kinase still bound, per cent of control (PAK7 (human)) was 80%. For the same molecule, the kinase still bound, per cent of control (PDGFRA (human)) was 92%, the kinase still bound, per cent of control (PRKG2 (human)) was 86% and the kinase still bound, per cent of control (RPS6KA1 KD2 (human)) was 100%. For the same molecule, the kinase still bound, per cent of control (RPS6KA5 KD1 (human)) was 100%, the kinase still bound, per cent of control (RPS6KA5 KD2 (human)) was 88% and the kinase still bound, per cent of control (RPS6KB1 (human)) was 86%. It also gave a kinase still bound, per cent of control (SIK3 (human)) of 83%, a kinase still bound, per cent of control (SRC (human)) of 95% and a kinase still bound, per cent of control (STK10 (human)) of 100%. The kinase still bound, per cent of control (STK17A (human)) was 91%, the kinase still bound, per cent of control (STK17B (human)) was 75% and the kinase still bound, per cent of control (STK38L (human)) was 97%. For the same molecule, the kinase still bound, per cent of control (TGFBR1 (human)) was 100%, the kinase still bound, per cent of control (TLK1 (human)) was 91% and the kinase still bound, per cent of control (TLK2 (human)) was 96%. For the same molecule, the kinase still bound, per cent of control (TNNI3K (human)) was 100% and the kinase still bound, per cent of control (WEE2 (human)) was 95%.
